Test: High-throughput single time point substrate depletion microsomal stability assay
Assay type: in vitro ADME
Details: Sprague-Dawley, control compounds, mean ± S.D across 600 plates, 0.5 mg/mL rat microsomal protein, 1.0 μM drug, NADPH regeneration system, pH 7.4, 37 °C, 15 min, t1/2 capped at 30 min
Protocol: Microsomal stability of the test articles was determined in a high-throughput format using the substrate depletion method. […] Sprague-Dawley was chosen because it is the most common strain used in drug discovery. Experiments were performed using a Freedom Evo 200 automated platform with a 96-channel (MCA96) head with EVOware software (version 3.2) (Tecan Inc., Männedorf, Switzerland). The system also includes an Inheco heating block and cooling block (Inheco, Munich, Germany). […] The assay incubation system consisted of 0.5 mg/mL of rat microsomal protein, 1.0 μM drug concentration, and NADPH regeneration system (containing 0.650 mM NADP + , 1.65 mM glucose 6-phosphate, 1.65 mM MgCl2, and 0.2 unit/mL G6PDH) in 100 mM phosphate buffer at pH 7.4. The incubation was carried out at 37 °C for 15 min. The reaction was quenched by adding 555 μL of acetonitrile containing 0.28 μM albendazole, an internal standard. After a 20-min centrifugation at 3000 rpm at 4 °C, 30 μL of the supernatant was transferred to an analysis plate and was diluted fivefold using 1:2 v/v acetonitrile/water. […] The raw data set was preprocessed to generate training and test data for the purpose of building and validating prediction models. […] Detailed steps involved in preprocessing the raw data set are provided in the supplementary information (Table S1).

| half-life at 1 μM (microsomes) | half-life at 1 μM (rat liver microsomes) | SMILES |
| --- | --- | --- |
| > 30 min | – | Cc1cc(=O)n(-c2ccccc2)n1C [Antipyrine, antipyrine] |
| – | 3.8 ± 1.1 min | O=C1CC2(CCCC2)CC(=O)N1CCCCN1CCN(c2ncccn2)CC1 [Buspirone, buspirone] |
| – | > 30 min | NC(=O)N1c2ccccc2C=Cc2ccccc21 [Carbamazepine, carbamazepine] |
| – | 11.4 ± 2.6 min | O=C(O)Cc1ccccc1Nc1c(Cl)cccc1Cl [Diclofenac, diclofenac] |
| – | 1.4 ± 0.3 min | CC(C)NCC(O)COc1cccc2ccccc12 (centres unmarked) [Propranolol, propranolol] |

— PMC7693334, “Retrospective assessment of rat liver microsomal stability at NCATS: data and QSAR models” (Scientific Reports, 2020)
